Data taken from patent publication US20240327388A1, “QUINOLINAMINE COMPOUND, PREPARATION METHOD THEREFOR AND APPLICATION THEREOF IN PHARMACEUTICALS” (JIANGSU HENGRUI PHARMACEUTICALS CO., LTD., priority 2021, published 2024).
Like-named read-outs stand apart in the source and are kept apart here.

Assays:
miR-124 = test: Up-regulation of miR-124 in CD3/CD28 antibody-activated T cells (SYBR green quantitative PCR); type: cell-based; conditions: T-cell, 72 h; activated human T cells, 1 μM compound, 3 days, relative to DMSO, U6 internal reference
Experimental: The effect of the compound on miR-124 expression levels was detected in CD3/CD28 antibody-activated T cells. After the activated T cells were treated with the compound, the total cellular RNA was extracted, the cDNA obtained from reverse transcription was used as a template, and quantification was performed by an SYBR green fluorescence quantitative PCR method using a specific miR-124 primer.
Isolation of T cells: Purchased human peripheral blood mononuclear cells (PBMCs) were counted, centrifuged, and washed once with a separation buffer (PBS, pH 7.4, containing 0.5% BSA and 2 mM EDTA), and the supernatant was discarded. The components were added in an amount of 40 μL of a buffer and 10 μL of pan T Cell Biotin-Antibody Cocktail per 1×10^7 cells, and the pellet was resuspended. The resulting suspension was mixed and incubated in a refrigerator at 4° C. for 5 min. After the incubation was completed, the components were added in an amount of 30 μL of a buffer and 20 μL of Pan T Cell MicroBeads Cocktail per 1×10^7 cells, and the resulting suspension was mixed and incubated in a refrigerator at 4° C. for 10 min. The separation column (LS column) was rinsed with 3 mL of a cell separation buffer in advance, loaded with the above cell suspension, and then repeatedly washed 3 times with 1 mL of the cell separation buffer. The effluent cell fluid was collected in a 15 mL centrifuge tube, thus giving the enriched T cells. The cells were counted and added at a density of 1×10^6 cells/mL to an RPMI1640 medium (complete medium) containing 10% FBS and 40) U/mL IL-2, and the resulting mixture was kept on ice for later use.
Activation of T cells: The corresponding Dynabead Human T-Activator CD3/CD28 for T Cell Expansion and Activation were added to a 1.5 mL centrifuge tube in an amount of 25 μL of the activated magnetic beads per 1×10^6 cells, which should be shaken on a shaker for about 30 s before aspiration. In the centrifuge tube, at a volume ratio of greater than 1:1, the activated magnetic beads were washed 3 times with a medium, and all the washing liquid was removed after the last washing. A complete medium with a volume equal to the starting volume was added to resuspend the activated magnetic beads. The washed activated magnetic beads were added to the cell resuspension, and the resulting mixture was well mixed. The cells were added to a six-well plate at 3 mL/well and incubated in a cell incubator at 37° C. with 5% CO2 for 2 days.
Compound treatment: A 20 mM compound stock solution was diluted to 200 μM with DMSO, and then diluted 4-fold to 50 μM (50)×) with a complete medium. The resulting mixture was well mixed for later use. 4-fold diluted DMSO (25% DMSO) was added to negative control wells. T cells were activated for two days and pipetted uniformly. The 1.5 mL centrifuge tube was mounted on a magnetic rack, and the activated magnetic beads were removed. The cell suspension was collected, and the cells were counted and then centrifuged at 300×g for 10 min to discard the supernatant. The cells were then resuspended to 1.02×10^6 cells/mL, and 980 μL of the cell suspension and 20 μL of the 50× compound were added to each 24-well plate, with the final concentration of the compound being 1 μM. The cells were placed in a cell incubator at 37° C. with 5% CO2 for another 3 days.
RNA extraction: T cells were collected by centrifugation at 1500 rpm for 3 min, washed once with PBS, and centrifuged again to discard the supernatant. The total cellular RNA was extracted using a microRNA extraction kit according to the package insert. 700 μL of a Trizol cell lysis buffer was added to the cell pellet, and the resulting mixture was pipetted uniformly and left at room temperature for 5 min. 140 μL of chloroform was added, and the resulting mixture was well mixed with shaking and left to stand at room temperature for 3 min. The chloroform-cell lysis buffer mixture was centrifuged at 12000×g and 4° C. for 15 min. […]

[1] = Pharmacokinetic study in rats (intragastric administration and intravenous injection, LC/MS/MS); type: in vivo, SD rats; conditions: rat; for Vd/F / AUC / CL/F / half-life / Cmax / MRT / Vd / clearance: both sexes, SD, plasma; for Vd/F: read-out: Apparent volume of distribution Vz/F; for AUC: read-out: Area under curve AUC; for CL/F: read-out: Clearance CL/F; for half-life: read-out: Half-life t½ (converted); for Cmax: read-out: Plasma concentration Cmax; for MRT: read-out: Residence time MRT; for Vd: read-out: Apparent volume of distribution Vz; for clearance: read-out: Clearance CL
Experimental: With rats as test animals, the plasma concentration of the compound of Example 2 and a comparative compound A (see compound (1) of Example 3 in WO2016135052A1) were determined by LC/MS/MS at different time points after intragastric administration and intravenous injection to the rats. The pharmacokinetic behavior in rats of the compound disclosed herein was studied and its pharmacokinetic profile was evaluated.
16 healthy adult SD rats (half male and half female, purchased from Vital River Laboratory Animal Technology Co., Ltd.) were evenly divided into 4 groups.
A certain amount of the compound was weighed out, and 5% of DMSO, 5% of Tween 80, and 90% of normal saline were added to give a colorless and clear solution.
Intragastric administration group: SD rats were fasted overnight, and then the compound was administered intragastrically to the rats at a dose of 2 mg/kg and a volume of 10.0 mL/kg.
Intravenous administration group: SD rats were fasted overnight, and then the compound was administered to the rats by intravenous injection at a dose of 1 mg/kg and a volume of 5.0 mL/kg.
Intragastric administration group: The compound of Example 2 and the comparative compound A were administered intragastrically to the rats, and 0.1 mL of blood was collected from the orbit before administration and 0.25 h, 0.5 h, 1.0 h, 2.0 h, 4.0 h, 6.0 h, 8.0 h, 11.0 h and 24.0 h after administration. The blood was placed in an EDTA-K2 anticoagulation tube and centrifuged at 10000 rpm for 1 min at 4° C. The plasma was separated within 1 h and stored at −20° C. before analysis. The process from blood collection to centrifugation was performed in an ice bath. Two hours after administration, feeding was resumed.
Intravenous administration group: The rats were injected intravenously with the compound of Example 2 and the comparative compound A, and the blood was collected before administration and 5 min, 15 min, 0.5 h, 1.0 h, 2.0 h, 4.0 h, 8.0 h, 11.0 h and 24.0 h after administration and treated in the same way as the blood of the intragastric administration group.
Determination of plasma concentrations in rats after intragastric administration and intravenous injection of the test compounds at different concentrations: 20 μL of rat plasma at each time point after administration was mixed with 50 μL of an internal standard solution (camptothecin, 100 ng/mL) and 200 μL of acetonitrile, and the mixture was vortexed for 5 min and centrifuged for 10 min at 3700-4000 rpm. 1.0-2.0 μL of supernatant of the plasma sample was taken for LC/MS/MS analysis.

[2] = test system: dextran sulfate sodium salt (DSS)-induced UC mice; test: Prophylactic and therapeutic effects on DSS-induced ulcerative colitis (UC) in mice; type: in vivo, female C57BL/6 mice; conditions: for efficacy on DSS-induced UC (conclusion in words): 50 mg/kg, body weight and colon length; for body weight decreasing rate / colon length, % of that of the normal control group: DSS-induced UC mice
Experimental: In the experiment, female C57BL/6 mice from Vital River were selected to establish an ulcerative colitis (UC) model induced by dextran sulfate sodium salt (DSS), and the prophylactic and therapeutic effects of a positive compound ABX-464 (see compound 90 in WO2015001518A1) and compound 1 disclosed herein on the DSS-induced ulcerative colitis were evaluated.
Female C57BL/6 mice for experiments, purchased from Vital River Laboratory Animal Technology Co., Ltd. (production license number: SCXK (Zhejiang) 2019-0001, animal certification number: 20210401Abzz0619000795), weighing 20-22 g at the time of purchase, were bred at 5 mice/cage in an independent SPF space (in 12/12-hour light/dark cycle, at a constant temperature of 23±1° C. and a humidity of 50%-60%) and given ad libitum access to food and water. After purchase, the animals were acclimatized for at least 1 week, and then the experiment began.
The mice were randomly divided by body weight into the following 5 groups: normal control group (Naïve group), model group (DSS group), ABX-464 (50 mg/kg, p.o., qd) group, ABX-464 (50 mg/kg, p.o., bid) group, and compound 1 disclosed herein (50 mg/kg, p.o., bid) group. After acclimatization, the mice were subjected to 2.5% DSS feeding from day 0. After 7 days of DSS feeding, the mice were fed normal water until day 10. The corresponding solvents and drugs were administered intragastrically for 10 consecutive days from day 0 to day 10, and the mice were observed daily for changes in body weight from day 0 to day 10. On day 10, the mice were weighed, and the colon length was measured.
The experimental data are expressed as mean±standard error (SEM). Statistical comparison was performed using Excel software t-test. The data of the model group and the data of the normal control group were analyzed and compared. #P<0.05 indicates a significant difference between the model group and the normal control group, ##P<0.01 indicates a highly significant difference between the model group and the normal control group, and ###P<0.001 indicates a very highly significant difference between the model group and the normal control group. *P<0.05 indicates a significant difference between the administration group and the model group, **P<0.01 indicates a highly significant difference between the administration group and the model group, and ***P<0.001 indicates a very highly significant difference between the administration group and the model group.

[3] = po, intragastric administration, 2 mg/kg

Vd/F [1, 3] [L/kg] | AUC [1, 3] [ng·h/mL] | CL/F [1, 3] [mL/min/kg] | half-life [1, 3] [h] | Cmax [1, 3] [ng/mL] | MRT [1, 3] [h] | Vd ([1]; intravenous injection, 1 mg/kg) [L/kg] | AUC ([1]; intravenous injection, 1 mg/kg) [ng·h/mL] | clearance ([1]; intravenous injection, 1 mg/kg) [mL/min/kg] | half-life ([1]; intravenous injection, 1 mg/kg) [h] | MRT ([1]; intravenous injection, 1 mg/kg) [h] | SMILES | fold induction at 1 µM (miR-124) | pharmacokinetic profile (conclusion in words) ([1]; compared to comparative compound A) | efficacy on DSS-induced UC (conclusion in words) [2] | body weight decreasing rate ([2]; day 10, 50 mg/kg p.o. bid) [%] | colon length, % of that of the normal control group ([2]; day 10, 50 mg/kg p.o. bid) [%] | body weight decreasing rate ([2]; day 10, 50 mg/kg p.o. qd) [%] | colon length, % of that of the normal control group ([2]; day 10, 50 mg/kg p.o. qd) [%]
6.18 | 1220 | 28.7 | 2.47 | 242 | 4.32 | 0.178 | 23000 | 0.781 | 2.85 | 2.1 | O=C(O)[C@H]1O[C@@H](N(c2ccc3c(c2)OC(F)(F)O3)c2ccc3cccc(Cl)c3n2)[C@H](O)[C@@H](O)[C@@H]1O [Compound 2, (2S,3S,4S,5R,6R)-6-((8-Chloroquinolin-2-yl)(2,2-difluorobenzo[d][1,3]dioxol-5-yl)amino)-3,4,5-trihydroxytetrahydro-2H-pyran-2-carboxylic acid] | 1.2 | good absorption profile and significant pharmacokinetic superiority as compared to the comparative compound A | – | – | – | – | –
21.4 | 311 | 95.7 | 2.57 | 105 | 3.76 | 0.151 | 11900 | 1.45 | 1.24 | 1.17 | O=C(O)[C@H]1O[C@@H](N(c2ccc(OC(F)(F)F)cc2)c2ccc3cccc(Cl)c3n2)[C@H](O)[C@@H](O)[C@@H]1O [A, reference compound] | – | – | – | – | – | – | –
– | – | – | – | – | – | – | – | – | – | – | FC(F)(F)Oc1ccc(Nc2ccc3cccc(Cl)c3n2)cc1 [ABX-464] | – | – | certain prophylactic and therapeutic effects on the DSS-induced UC | 10.3 | 89.3 | 14.1 | 85.5
– | – | – | – | – | – | – | – | – | – | – | FC1(F)Oc2ccc(Nc3ccc4cccc(Cl)c4n3)cc2O1 [Compound 1, 8-Chloro-N-(2,2-difluorobenzo[d][1,3]dioxol-5-yl)quinolin-2-amine] | 3.9 | – | better efficacy in terms of body weight and colon length than the positive drug ABX-464 | 0.4 | 91.9 | – | –
